Reference: publication PMC11876601 (Molecular Systems Biology, 2025)
Several values for one entry are separate records, joined by “and”; a condition that tells them apart may be missing. Equal entries are not always repeated. Where two headings read alike, the source gives them in different places.

Tests used:
PDO B250 = test: PDO viability assay (CellTiter-Glo, 72 h); assay type: cell-based, human; conditions: for pEC50: single replicates R1-R8
Method: (§1) Primary patient-derived PDAC organoid (PDO) experiments were performed in the laboratories of Prof. Maximilian Reichert (University Hospital of the TU Munich, Germany, PDO set 1: B250, B535, B678) and Prof. Jens T. Siveke (University Hospital Essen, Germany; PDO set 2: UME008, UME012, UME051, UME053, UME060, UME061). PDOs were generated from surgical resection, EUS-guided fine needle biopsy (EUS-FNB), or ascites (Appendix Table S2). Surgical specimens were first minced with a sterile scalpel and subsequently washed with Anti-Anti solution and washing medium (PDO set 1), or vice versa (PDO set 2; Appendix Table S3). Biopsy samples were directly washed with an Anti-Anti solution and washing medium. Samples were digested using 1 ml of digestion medium at 37 °C while shaking, and the enzymatic reaction was stopped by adding 15 ml of washing medium (Appendix Table S3). If samples of PDO set 1 were blood-stained, tissue pellets were first incubated with ACK lysing buffer/red blood cells lysis buffer (Thermo Fisher Scientific) for 5 min and then digested using TrypLE (Thermo Fisher Scientific). The reversed procedure was applied for blood-stained samples of PDO set 2. For PDO generation from ascites, the material was first spun down at 500 × g for 5 min. Then, washing medium was added and the suspension was centrifuged at 300 × g for 5 min. If the pellet was blood-stained, ACK lysis buffer was added and incubated at room temperature.
(§2) For viability assays in PDOs, confluent organoids were removed from medium, and Matrigel was dissolved by adding 200 μl (PDO set 1) or 2 ml (PDO set 2) of Cell Recovery Solution (Corning), and additionally 500 μl of DPBS (PDO set 1 only). Samples were transferred into a falcon and incubated on ice for 30 min, followed by centrifugation at 300 × g at 4 °C for 5 min (after adding 10 ml washing medium for PDO set 2). Subsequently, TrypLE Express Enzyme (Thermo Fisher) was added to cell pellets and incubated for 2 × 5 min at 37 °C. The enzymatic reaction was quenched by DPBS (PDO set 1) or washing medium (PDO set 2), and samples were washed by centrifugation at 300 × g at 4 °C for 5 min. Five hundred cells/well were seeded in 384-well plates (Corning) in 50 μl of PDO medium containing 10% Matrigel. To allow PDO generation, cells were incubated for 4 days at 37 °C and 5% CO2. […] Experiments were pipetted manually (PDO set 1) or automatically using a TECAN D300e Digital Dispenser (HP; PDO set 2). Treatments were performed in eight replicates, except for PDO PPES045 (quadruplicates). After 72 h, cell viability was measured using the CellTiter-Glo Luminescent Cell Viability Assay (Promega) diluted 1:5 in the final volume of the well. After 20 min of incubation at room temperature under gentle shaking, the acquisition was performed in the microplate reader VantaSTAR (BMG Labtech) using 3000 gain for the amplification measurement of a detected signal (PDO set 1) or the Spark Multimode microplate reader (TECAN) at 800 ms integration time (PDO set 2).

PDO B535 = test: PDO viability assay (CellTiter-Glo, 72 h); assay type: cell-based, human; conditions: for pEC50: single replicates R1-R8
Method: as §1, §2

PDO B678 = test: PDO viability assay (CellTiter-Glo, 72 h); assay type: cell-based, human
Method: as §1, §2

PDO UME008 = test: PDO viability assay (CellTiter-Glo, 72 h); assay type: cell-based, human;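 as to Curve top: fraction of plate-wise median vehicle signal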
Method: as §1, §2

PDO UME060 = test: PDO viability assay (CellTiter-Glo, 72 h); assay type: cell-based, human;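 as to Curve top: fraction of plate-wise median vehicle signal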
Method: as §1, §2

IKBKE = system: IKBKE; parameters: method as in Klaeger et al. (2017); conditions: lysate 4 cell line mix (Colo205, K-562, MV-4-11, and SK-N-BE(2)), Kinobeads y, ref Klaeger et al. (2017); cited from earlier work
RPS6KA1 = system: RPS6KA1; parameters: method as in Klaeger et al. (2017); conditions: lysate 4 cell line mix (Colo205, K-562, MV-4-11, and SK-N-BE(2)), Kinobeads y, ref Klaeger et al. (2017); cited from earlier work
YES1 = system: YES1; parameters: method as in Reinecke et al. (2023); conditions: YES1, 5 cell line mix lysate, Kinobeads ε, ref Reinecke et al. (2023), cited from earlier work
TAOK2 = system: TAOK2; parameters: method as in Reinecke et al. (2023); conditions: TAOK2, 5 cell line mix lysate, Kinobeads ε, ref Reinecke et al. (2023), cited from earlier work
[1] = Experiment GEM (GEM alone), single replicates R1-R8, read-out: EC50
[2] = Experiment GEM+ATRi_dose1 (ATRi = Elimusertib)
[3] = Experiment GEM+ATRi_dose1 (ATRi = Elimusertib), single replicates R1-R8, read-out: EC50
[4] = Homo sapiens, Experiment GEM (GEM alone), mean of replicates, read-out: EC50 mean
[5] = Homo sapiens, Experiment GEM+ATRi_dose1 (ATRi = Elimusertib), mean of replicates, read-out: EC50 mean
[6] = Homo sapiens, Experiment GEM+ATRi_dose2 (ATRi = Elimusertib), mean of replicates, read-out: EC50 mean
[7] = Homo sapiens, GEM alone, read-out: EC50 mean
[8] = Homo sapiens, Experiment GEM+ATRi_dose3 (ATRi = Elimusertib), mean of replicates, read-out: EC50 mean
[9] = PDO UME008, GEM + Elimusertib (ATRi) dose1, per replicate
[10] = PDO UME008, GEM + Elimusertib (ATRi) dose2, per replicate
[11] = PDO UME008, GEM + Elimusertib (ATRi) dose3, per replicate
[12] = PDO UME008, GEM alone, per replicate

In the case of `Nc1ccn([C@@H]2O[C@H](CO)[C@@H](O)C2(F)F)c(=O)n1` [GEM, Gemcitabine], the pEC50 (PDO B250; Experiment GEM (GEM alone)) is reported as 6.73 and 6.37 and 6.71 and 6.62 and 6.75 and 6.40 and 6.58 and 6.41, the EC50 (PDO B250; [1]) is reported as 185 nM and 427 nM and 194 nM and 239 nM and 177 nM and 398 nM and 263 nM and 393 nM and the pEC50 (PDO B250; [2]) is reported as 6.29 and 6.41 and 6.85 and 6.58 and 6.87 and 7.26 and 6.73 and 6.74. The EC50 (PDO B250; [3]) was 516 nM and 389 nM and 140 nM and 262 nM and 135 nM and 54.9 nM and 185 nM and 183 nM, the EC50 (PDO B250; [4]) was 284 nM and the EC50 (PDO B250; [5]) was 233 nM. For the same molecule, the EC50 (PDO B250; [6]) was 265 nM, the EC50 (PDO B250; [7]) was 284 nM and the pEC50 (PDO B535; Experiment GEM (GEM alone)) was 8.39 and 8.78 and 8.35 and 8.91. The EC50 (PDO B535; [1]) was 4.05 nM and 1.64 nM and 2.44 nM and 4.43 nM and 1.23 nM, the pEC50 (PDO B535; [2]) was 8.24 and 8.20 and 8.63 and 8.99 and 8.75 and 8.16 and the EC50 (PDO B535; [3]) was 5.81 nM and 6.33 nM and 3.06 nM and 2.33 nM and 1.02 nM and 1.78 nM and 6.97 nM. For the same molecule, the pEC50 (PDO B535; Experiment GEM+ATRi_dose3 (ATRi = Elimusertib)) was 9.08 and 8.91 and 9.48 and 9.75 and 9.91 and 9.06, the EC50 (PDO B535; [5]) was 3.9 nM and the EC50 (PDO B535; [8]) was 0.59 nM. The pEC50 (PDO B678; Experiment GEM+ATRi_dose1 (ATRi = Elimusertib), single replicates R1-R8) was 6.49 and 6.68 and 7.12 and 6.42 and 6.56 and 6.26, the EC50 (PDO B678; [3]) was 321 nM and 209 nM and 76.6 nM and 382 nM and 273 nM and 548 nM and 379 nM and the EC50 (PDO B678; [4]) was 247 nM. For the same molecule, the EC50 (PDO B678; [5]) was 313 nM, the EC50 (PDO B678; [6]) was 156 nM and the EC50 (PDO B678; [8]) was 209 nM. The EC50 (PDO B678; [7]) was 247 nM, the EC50 (PDO UME008; Homo sapiens, PDO UME008, GEM + Elimusertib (ATRi) dose1, mean of replicates, read-out: EC50 mean) was 5.72 nM and the EC50 (PDO UME008; Homo sapiens, PDO UME008, GEM + Elimusertib (ATRi) dose1, per replicate, read-out: EC50) was 5.99 nM. It also gave an EC50 (PDO UME008; Homo sapiens, PDO UME008, GEM + Elimusertib (ATRi) dose1, per replicate, read-out: pEC50 (converted)) of 6.03 nM, an EC50 (PDO UME008; Homo sapiens, PDO UME008, GEM alone, mean of replicates, read-out: EC50 mean) of 26.4 nM and an EC50 (PDO UME008; Homo sapiens, PDO UME008, GEM alone, read-out: EC50 mean) of 26.4 nM. The EC50 (PDO UME008; Homo sapiens, SET-2, PDO UME008 (PDO set 2), Experiment GEM (GEM alone), mean of replicates, read-out: EC50 mean) was 26.4 nM, the EC50 (PDO UME008; Homo sapiens, SET-2, PDO UME008 (PDO set 2), Experiment GEM (GEM alone), single replicates, read-out: EC50) was 35.3 nM and the EC50 (PDO UME008; Homo sapiens, SET-2, PDO UME008 (PDO set 2), Experiment GEM (GEM alone), single replicates, read-out: pEC50 (converted)) was 35.5 nM. For the same molecule, the EC50 (PDO UME008; Homo sapiens, SET-2, PDO UME008 (PDO set 2), Experiment GEM+ATRi_dose1 (ATRi = Elimusertib), mean of replicates, read-out: EC50 mean) was 5.72 nM, the EC50 (PDO UME008; Homo sapiens, SET-2, PDO UME008 (PDO set 2), Experiment GEM+ATRi_dose1 (ATRi = Elimusertib), single replicates, read-out: EC50) was 4.47 nM and the EC50 (PDO UME008; Homo sapiens, SET-2, PDO UME008 (PDO set 2), Experiment GEM+ATRi_dose1 (ATRi = Elimusertib), single replicates, read-out: pEC50 (converted)) was 4.47 nM. The Curve slope (PDO UME008; [9]) was 0.15 and 0.09 and 0.06 and 0.14 and 0.13 and 0.10 and 0.08, the Curve top (PDO UME008; [9]) was 0.83 and 1.39 and 1.43 and 1.58 and the pEC50 (PDO UME008; [9]) was 8.33 and 8.31 and 8.10 and 8.30 and 8.17. For the same molecule, the EC50 (PDO UME008; PDO UME008, GEM + Elimusertib (ATRi) dose1, per replicate, read-out: EC50) was 4.68 nM and 4.87 nM and 6.08 nM and 7.93 nM and 4.97 nM and 6.77 nM, the Curve slope (PDO UME008; [10]) was 0.07 and 0.08 and 0.13 and 0.0742 and 0.12 and the Curve top (PDO UME008; [10]) was 1.01 and 1.56 and 1.34 and 1.60 and 1.61 and 1.89. The pEC50 (PDO UME008; [10]) was 8.24 and 8.33 and 8.77, the EC50 (PDO UME008; PDO UME008, GEM + Elimusertib (ATRi) dose2, per replicate, read-out: EC50) was 5.77 nM and 3.11 nM and 4.73 nM and 1.69 nM and the Curve slope (PDO UME008; [11]) was 0.10 and 0.07 and 0.08 and 0.0752 and 0.11 and 0.09. The Curve top (PDO UME008; [11]) was 1.25 and 0.88 and 1.26, the pEC50 (PDO UME008; [11]) was 8.27 and 8.67 and 8.63 and 8.23 and 8.28 and the EC50 (PDO UME008; PDO UME008, GEM + Elimusertib (ATRi) dose3, per replicate, read-out: EC50) was 2.48 nM and 5.32 nM and 2.13 nM and 3.3 nM and 2.33 nM and 5.9 nM and 5.31 nM. The Curve slope (PDO UME008; [12]) was 0.43 and 0.44 and 0.47 and 0.36 and 0.39, the Curve top (PDO UME008; [12]) was 0.95 and 1.46 and the pEC50 (PDO UME008; [12]) was 7.56 and 8.15 and 7.44 and 7.69 and 7.32 and 8.00. For the same molecule, the EC50 (PDO UME008; PDO UME008, GEM alone, per replicate, read-out: EC50) was 27.4 nM and 7.09 nM and 36.6 nM and 20.4 nM and 48 nM and 10.1 nM, the EC50 (PDO UME060; Homo sapiens, PDO UME060, GEM alone, read-out: EC50 mean) was 23.4 nM and the EC50 (PDO UME060; Homo sapiens, PDO UME060, experiment GEM (GEM alone), mean of replicates, read-out: EC50 mean) was 23.4 nM. The EC50 (PDO UME060; PDO UME060, PDO set 2, experiment GEM (GEM alone), single replicates, read-out: EC50) was 31.8 nM and 30.4 nM and 22.2 nM and 14.8 nM and 21.8 nM and 39.5 nM and 17.7 nM and 9.22 nM, the Curve top (PDO UME060; PDO UME060, experiment GEM (GEM alone), curve fit) was 1.00 and 0.88 and 1.04 and 0.95 and 1.07 and 0.83 and 1.30 and the pEC50 (PDO UME060; PDO UME060, experiment GEM (GEM alone), single replicates) was 7.50 and 7.52 and 7.65 and 7.83 and 7.66 and 7.40 and 7.75 and 8.04.

In the case of `C[C@]12O[C@H](C[C@]1(O)CO)n1c3ccccc3c3c4c(c5c6ccccc6n2c5c31)CNC4=O` [Lestaurtinib], the EC50 (IKBKE) is listed as 1030 nM and the EC50 (RPS6KA1) is listed as 3290 nM.

In the case of `COc1cc(N2CCC(N3CCN(C)CC3)CC2)ccc1Nc1ncc(Cl)c(Nc2ccccc2P(C)(C)=O)n1` [Brigatinib], the EC50 (YES1) is listed as 821 nM, the pKDapp (YES1) is listed as 6.47 and the Kd (YES1; read-out: KDapp) is listed as 339 nM. The EC50 (TAOK2) was 3110 nM, the pKDapp (TAOK2) was 5.74 and the Kd (TAOK2; read-out: KDapp) was 1830 nM.
